Results reported in paper PMC12442099 (ACS Infectious Diseases, 2025).
In brackets after ≈: the same amount, converted by molar mass.

Key:
E. coli TOP10F' = test: Growth inhibition after 7 hours (EC80/EC50); details: for EC50 / IC80: Escherichia coli, 7 h; for EC50: read-out: EC50 TOP10F'; for IC80: read-out: EC80 TOP10F'
E. coli TOP10F’ [1] = test: NPN uptake assay (outer membrane permeability); assay type: cell-based; details: 1 h, 10 μM NPN
Protocol: To investigate the effect of our quinolone hits on membrane permeability, we performed a 1-N- phenylnaphthylamine NPN uptake assay (Figure ), as described previously. NPN is a hydrophobic fluorophore that is unable to cross the OM under normal conditions.
6 Effect of compounds (A) A2 and (B) B1 on membrane integrity analyzed by NPN permeability. Polymyxin B was used at 1 μM and PMBN at 4 μM as membrane permeabilizing control compounds. Data represent the average relative fluorescence values of three independent experiments performed in triplicate. Error bars represent standard deviation of three independent experiments. Data were analyzed using a One-Way ANOVA with Dunnett’s multiple comparisons. **: p = 0.0017; ****: p < 0.0001.
ONC of E. coli TOP10F’ grown in LB were diluted to OD600 = 0.1 and subsequently grown until OD600 0.5 was reached. Bacterial cells were then pelleted at 1,000g for 10 min and resuspended in assay buffer (5 mM HEPES + 20 mM glucose, pH 7.2) to 1.0 OD600 units/ml. The cell suspension was then added to a black, clear bottom 96-well plate (Greiner Bio-One) at a final concentration of 0.5 OD600 units/ml. […] NPN fluorescence (Ex./Em. λ 355, 420) was measured after 1h incubation at room temperature. Relative fluorescence was calculated following the correction of NPN fluorescence in the absence of compound: NPNuptake=[Fobs−Fb]/[Fcontrol−Fb]

E. coli TOP10F’ cells = test: Phase contrast and fluorescence microscopy of cell morphology; assay type: cell-based; details: EC50 concentrations, 4 h, vs DMSO
From the text: DMSO-treated control cells had normal rod-shaped morphology. Drastic changes to cell and membrane morphology were observed following compound treatment.
Cells were stained with Nile red to visualize membranes and Hoechst to label DNA. a: Phase Contrast; b: Nile Red; c: Hoechst; d: overlay of Nile Red and Hoechst. White arrows indicate differences observed between control and compound treated cells, such as different localization and increased number of bright, lipid spots, vesicle-like bulges, apparent leakage of lipid contents and condensed DNA. Pictures are representative of at least 5 images taken per sample, during two independent experiments with similar results. Bottom panels show (B) cell length or (C) cell area after treatment with DMSO or EC50 concentrations of A2 or B1. Cells were analyzed after 4h of compound treatment. Data are representative of two independent experiments with similar results. Data were analyzed using a One-Way ANOVA with Kruskal–Wallis test for multiple comparisons. **** = p < 0.0001. Cells were counted from 3 to 5 pictures of each condition (DMSO: n = 1773, A2: n = 1920, B1: n = 555). Data are representative of two individual experiments with similar results.
Cells were collected at 4600g for 5 min. […]
Images were processed using ImageJ. Cell length and width were quantified using Oufti. Image data were analyzed using GraphPad Prism 10.3.1. […]

E. coli TOP10F’ [2] = test: MIC broth microdilution; assay type: cell-based; details: Escherichia coli; screening strain; CAMHB, median of triplicates; read-out: MIC (μg/mL) E. coli TOP10F’
Protocol: (§1) The antibacterial activity of the compounds was determined by measuring their minimum inhibitory concentration (MIC) values using the broth microdilution method according to the Clinical and Laboratory Standards Institute guidelines (CLSI). Briefly, a single colony from blood agar plates was inoculated into cation-adjusted Mueller-Hinton broth (CAMHB) and grown to OD600 = 0.5. Next, 10^6 CFU/mL were added to a 2-fold serial dilution series of test compounds and incubated at 37 °C, 600 rpm overnight (18–20 h for Gram-negative strains, 20–24 h for Gram-positive strains), after which the plates were visually inspected for bacterial growth. MICs are reported as the median of triplicates.

A. baumanni 9955 = test: MIC broth microdilution; assay type: cell-based; details: Acinetobacter baumannii, clinical isolate, CAMHB, median of triplicates, read-out: MIC (μg/mL) A. baumanni 9955
Protocol: as §1

K. pneumoniae 13883 = test: MIC broth microdilution; assay type: cell-based; details: Klebsiella pneumoniae, clinical isolate, CAMHB, median of triplicates, read-out: MIC (μg/mL) K. pneumoniae 13883
Protocol: as §1

E. coli BW25113 = test: MIC broth microdilution; assay type: cell-based; details: Escherichia coli, CAMHB, median of triplicates, read-out: MIC (μg/mL) E. coli BW25113
Protocol: as §1

P. aeruginosa 27853 = test: MIC broth microdilution; assay type: cell-based; details: Pseudomonas aeruginosa, clinical isolate, CAMHB, median of triplicates, read-out: MIC (μg/mL) P. aeruginosa 27853
Protocol: as §1

S. aureus USA 300 = test: MIC broth microdilution; assay type: cell-based; details: Staphylococcus aureus, USA300; clinical isolate; CAMHB, median of triplicates; read-out: MIC (μg/mL) S. aureus USA 300
Protocol: as §1

E. coli 25922 = test: MIC broth microdilution; assay type: cell-based; details: Escherichia coli, CAMHB, median of triplicates, read-out: MIC (μg/mL) E. coli 25922
Protocol: as §1

## CC(C)(C)n1cc(C(=O)O)c(=O)c2cc(F)c(N3CC4CC3CN4)nc21 (centres unmarked) [A2]
E. coli TOP10F'
  EC50: 0.016 µg/mL (≈ 0.0444 µM)
  IC80: 0.063 µg/mL (≈ 0.175 µM)
E. coli TOP10F'; as quoted in the NPN section
  EC80 concentration: around 0.35 μM
E. coli TOP10F’ [1]
  NPN relative fluorescence (membrane permeability): significant increase in relative fluorescence at 4 and 16 μM
E. coli TOP10F’ cells
  cell length: significantly increased the overall average length of the cells
E. coli TOP10F’ [2]
  MIC: < 0.03 µg/mL
A. baumanni 9955
  MIC: 0.5 µg/mL (≈ 1.39 µM)
K. pneumoniae 13883
  MIC: 0.125 µg/mL (≈ 0.347 µM)
E. coli BW25113
  MIC: 0.06 µg/mL (≈ 0.166 µM)
P. aeruginosa 27853
  MIC: 1 µg/mL (≈ 2.77 µM)
S. aureus USA 300
  MIC: 8 µg/mL (≈ 22.2 µM)
E. coli 25922
  MIC: 0.125 µg/mL (≈ 0.347 µM)

## O=C1COc2ccc(CNC3CCN(CC4Cc5c(F)cc(F)c6ccc(=O)n4c56)CC3)nc2N1 (centres unmarked) [B1]
E. coli TOP10F'
  EC50: 0.031 µg/mL (≈ 0.0644 µM)
  IC80: 0.5 µg/mL (≈ 1.04 µM)
E. coli TOP10F’ [1]
  NPN relative fluorescence (membrane permeability): did not exhibit an increase in fluorescence
E. coli TOP10F’ cells
  cell length: significantly increased the overall average length of the cells
E. coli TOP10F’ [2]
  MIC: < 0.03 µg/mL
A. baumanni 9955
  MIC: 0.25 µg/mL (≈ 0.519 µM)
K. pneumoniae 13883
  MIC: 1 µg/mL (≈ 2.08 µM)
E. coli BW25113
  MIC: 0.25 µg/mL (≈ 0.519 µM)
P. aeruginosa 27853
  MIC: 8 µg/mL (≈ 16.6 µM)
S. aureus USA 300
  MIC: 0.06 µg/mL (≈ 0.125 µM)
E. coli 25922
  MIC: 0.5 µg/mL (≈ 1.04 µM)
